Data set [1] concerns A/duck/Hokkaido/Vac-3/07 (H5N1/Vac-3). Description: microbe, parasite or virus in culture. The format is cell-based, influenza A virus.
For data set [2], the system named is HA from A/California/07/2009 (H1N1). The format is cell-based, influenza A virus.
The subject of data set [3] is A/whooper swan/Hokkaido/1/08 (H5N1). The arrangement: species or system BALB/c mice. The conditions noted are these: mouse, in vivo, 1.9 mg/kg/day.
Data set [4] deals with HA on H1N1 virions. The format is binding, influenza A virus.
For data set [5], the system named is HA on H2N2 virions. In kind it is binding, influenza A virus.
Data set [6] concerns H5N1/Vac-3. In kind it is cell-based, influenza A virus.
Data set [7] has as its system H1N1/Tokyo2619. The format is cell-based, influenza A virus.
Data set [8] deals with chicken red blood cells.
Data set [9] relates to A/Vietnam/UT3040/2004 (H5N1/Vietnam). The arrangement: species or system cynomolgus monkeys. Particulars: cynomolgus monkey, in vivo.
Data set [10] in a line: in vitro. The conditions noted are these: human, serum.

Where a SMILES comes first, the peptide text is derived from it. Bridges are numbered along the chain shown (N, C = ends). [ ]: non-standard residue; d: D form. NMeF = CN[C@@H](Cc1ccccc1)C(=O)O; NMeS = CN[C@@H](CO)C(=O)O; Sar = CNCC(=O)O

As a reminder, the half-life is the time needed for the level to fall by half in the phase considered. Lower therefore signals rapid decline. `CC(C)[C@@H]1NC(=O)[C@H]([C@@H](C)O)NC(=O)[C@H](Cc2ccc(O)cc2)NC(=O)[C@H](Cc2c[nH]cn2)NC(=O)[C@H](CO)N(C)C(=O)[C@H](CO)NC(=O)[C@H](Cc2ccccc2)N(C)C(=O)[C@H](Cc2ccccc2)N(C)C(=O)[C@H](CC(=O)O)NC(=O)CN(C)C(=O)[C@H]([C@@H](C)O)NC(=O)[C@H](Cc2c[nH]c3ccccc23)NC(=O)CSC[C@@H](C(N)=O)NC(=O)[C@H](CCCNC(=N)N)NC(=O)[C@@H]2CCCN2C1=O` [iHA-100] ({CH2CO}-WT[Sar]D[NMeF][NMeF]S[NMeS]HYTVPRC-NH2; thioether N-15): in [1], the “Plaque formation of H5N1/Vac-3 (screen of 28 candidates)” value was “inhibited plaque formation” and the “Size of viral plaques” value is “reduced the size of viral plaques”. Further, the “Polykaryon formation mediated by H1 HA” value in [2] is “significantly inhibited”. Also, in data set [3], the “Progression of pneumonia (histopathology)” value is reported as “prevented the progression of pneumonia”; the Survival amounted to 40%; the “Survival rate, administration started 0 days after infection” value is “comparable with the survival rate in the zanamivir-treated group”; the “Viral replication in the lungs” value is on record as “significantly suppressed”. Moreover, the “Virus-related increase in lung weight” value in [3] is “significantly suppressed”. The “Binding to HA on H1N1 virions (pull-down)” value in data set [4] was “bound to HA”. Moreover, in [5], the “Binding to HA on H2N2 virions (pull-down)” value is on record as “bound to HA”. The “H5N1/Vac-3 virus-mediated RBC membrane fusion” value in data set [6] was “inhibited by iHA-100 in a dose-dependent manner”. The “H1N1/Tokyo2619 virus-mediated RBC membrane fusion” value in data set [7] is “inhibited by iHA-100 in a dose-dependent manner”. The Inhibition of hemagglutination result in [8] was “could not”. Also, in [9], the “IFN-γ in the lungs” value is reported as “significantly reduced”, the “IL-6 in the lungs” value is “significantly reduced”, the “IL-15 in the lungs” value is reported as “decreased” and the “Virus titers in autopsy lung samples at 7 dpi” value is given as “low virus titers in the lungs of two monkeys”. For the same compound, in data set [9] (3 mg/kg/day), the Body temperature entry is listed as “returned to a normal range”; the Bodyweight loss result was “relatively attenuated”; the Lung weights result is given as “relatively lower”; the “Virus in nasal, oral and bronchial swabs” value is “disappeared at 3–6 dpi”. The “Virus shedding after treatment (3–7 dpi), area under the curve” value in [9] (po) is “significantly lower virus shedding”. In addition, in [10], the half-life is roughly 3.85 h.

The values are drawn from article PMC8113231 (Nature Communications, 2021).
